# Patent US20060058274A1, “Use of an aldosterone receptor antagonist to improve cognitive function” (Pharmacia Corporation, priority 2000, published 2006)
# Tests used:
# male Wistar rats = details: cited from earlier work; for corticosterone-induced increase in behavioral reactivity: pretreatment, intracerebroventricular injection
# mice = details: cited from earlier work
# [1] = Dissolution rate of unformulated solid state forms of eplerenone; type: physicochemical; details: temperatures below the enantiotropic transition temperature
# [2] = tested on: patients with mild-to-moderate hypertension; test: Phase II dose-ranging study of eplerenone in mild-to-moderate hypertension; type: in vivo, human; details: for adjusted mean change in ABPM DBP from baseline to final visit / adjusted mean change in ABPM SBP from baseline to final visit: ambulatory blood pressure monitoring; for adjusted mean change in Cuff DBP from baseline to final visit / adjusted mean change in Cuff SBP from baseline to final visit: eight-week study
# Text: The adjusted mean changes (in mmHg) in diastolic blood pressure (DBP) and systolic blood pressure (SBP) from baseline to final visit are shown in Table 1A.
# [3] = tested on: patients with HF or hypertension; test: Phase II eplerenone HF and hypertension trials; type: in vivo, human; details: 25 to 50 mg QD
# [4] = Physical stability of solid state forms of eplerenone; type: physicochemical; details: temperatures below the enantiotropic transition temperature
# [5] = target: T1, central mineralocorticoid receptors (Homo sapiens, UniProt P08235); details: cited from earlier work
# T1 sequence (P08235 1-984): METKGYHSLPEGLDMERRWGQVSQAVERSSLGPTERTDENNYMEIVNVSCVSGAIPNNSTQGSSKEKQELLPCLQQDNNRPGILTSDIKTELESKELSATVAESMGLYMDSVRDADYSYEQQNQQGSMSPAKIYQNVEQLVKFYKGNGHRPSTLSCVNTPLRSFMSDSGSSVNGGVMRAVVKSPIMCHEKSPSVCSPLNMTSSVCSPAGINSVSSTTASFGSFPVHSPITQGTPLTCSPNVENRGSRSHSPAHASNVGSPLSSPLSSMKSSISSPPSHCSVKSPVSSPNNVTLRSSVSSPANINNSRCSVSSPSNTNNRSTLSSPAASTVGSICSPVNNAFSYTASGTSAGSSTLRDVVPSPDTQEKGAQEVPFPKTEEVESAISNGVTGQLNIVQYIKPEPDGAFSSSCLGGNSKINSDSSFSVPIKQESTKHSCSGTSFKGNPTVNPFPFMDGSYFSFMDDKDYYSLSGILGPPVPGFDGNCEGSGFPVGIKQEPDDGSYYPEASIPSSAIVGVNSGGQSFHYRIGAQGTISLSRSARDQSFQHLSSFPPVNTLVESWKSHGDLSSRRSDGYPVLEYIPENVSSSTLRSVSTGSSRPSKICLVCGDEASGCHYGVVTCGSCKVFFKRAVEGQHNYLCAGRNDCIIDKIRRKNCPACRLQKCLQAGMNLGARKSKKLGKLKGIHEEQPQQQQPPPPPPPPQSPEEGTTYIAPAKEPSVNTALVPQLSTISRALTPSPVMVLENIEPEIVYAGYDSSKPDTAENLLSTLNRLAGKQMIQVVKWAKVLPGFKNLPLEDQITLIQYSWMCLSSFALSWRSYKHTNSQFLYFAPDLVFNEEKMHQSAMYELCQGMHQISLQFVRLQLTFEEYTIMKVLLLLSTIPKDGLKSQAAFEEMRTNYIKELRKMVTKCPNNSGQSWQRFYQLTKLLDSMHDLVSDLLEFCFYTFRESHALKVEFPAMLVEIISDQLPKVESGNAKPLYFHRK
# glucocorticoid receptors = target: T2, glucocorticoid receptors (Homo sapiens, UniProt P04150); details: cited from earlier work
# T2 sequence (P04150 1-777): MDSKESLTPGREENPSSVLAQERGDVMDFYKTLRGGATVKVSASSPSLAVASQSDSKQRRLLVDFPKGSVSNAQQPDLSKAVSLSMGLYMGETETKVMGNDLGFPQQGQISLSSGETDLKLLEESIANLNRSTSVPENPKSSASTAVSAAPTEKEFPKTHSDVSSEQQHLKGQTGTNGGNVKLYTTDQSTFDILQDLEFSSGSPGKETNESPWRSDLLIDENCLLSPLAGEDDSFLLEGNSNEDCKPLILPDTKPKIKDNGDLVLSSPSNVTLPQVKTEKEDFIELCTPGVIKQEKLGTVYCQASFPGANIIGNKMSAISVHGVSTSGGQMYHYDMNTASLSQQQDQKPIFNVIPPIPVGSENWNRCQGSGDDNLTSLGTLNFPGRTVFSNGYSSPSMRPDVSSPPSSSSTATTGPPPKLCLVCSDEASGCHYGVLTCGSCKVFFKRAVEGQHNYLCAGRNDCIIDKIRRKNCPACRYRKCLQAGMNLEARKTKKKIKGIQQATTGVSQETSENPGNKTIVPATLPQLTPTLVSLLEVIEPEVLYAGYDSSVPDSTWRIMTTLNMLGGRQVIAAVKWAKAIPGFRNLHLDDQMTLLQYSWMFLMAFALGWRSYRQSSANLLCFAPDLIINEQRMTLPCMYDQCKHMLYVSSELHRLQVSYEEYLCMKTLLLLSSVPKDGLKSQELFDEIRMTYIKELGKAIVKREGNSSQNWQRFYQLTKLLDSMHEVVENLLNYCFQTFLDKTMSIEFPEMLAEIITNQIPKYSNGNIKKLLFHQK
# [6] = tested on: Dahl salt-sensitive (DS) rat; details: low, non-antihypertensive doses, cited from earlier work; for memory function (passive avoidance): aged DS rats on low salt diet
smiles,measurement,setting,value
CCC[C@@H]1CC2=CC(=O)CC[C@]2(C)[C@H]2CC[C@@]3(C)[C@@H](CC[C@@]3(O)CCC(=O)[O-])[C@H]12.[K+] [RU28318],corticosterone-induced increase in behavioral reactivity,male Wistar rats,prevented
NC(=O)CN1CCCC1=O [piracetam],retention performance,"mice; pretreatment, amnesia induced by electro-shock",significantly improved
"COC(=O)[C@@H]1CC2=CC(=O)CC[C@]2(C)[C@@]23O[C@@H]2C[C@@]2(C)[C@@H](CC[C@@]24CCC(=O)O4)[C@H]13 [Form H, eplerenone]","dissolution rate, higher than unformulated Form L",[1],approximately 30%
"COC(=O)[C@@H]1CC2=CC(=O)CC[C@]2(C)[C@@]23O[C@@H]2C[C@@]2(C)[C@@H](CC[C@@]24CCC(=O)O4)[C@H]13 [Eplerenone, Pregn-4-ene-7,21-dicarboxylic acid, 9,11-epoxy-17-hydroxy-3-oxo-,γ-lactone, methyl ester, (7α,11α,17β)-]",adjusted mean change in ABPM DBP from baseline to final visit,[2]; 25 mg BID,−4.1 mmHg
same,adjusted mean change in ABPM SBP from baseline to final visit,[2]; 25 mg BID,−7.5 mmHg
same,adjusted mean change in Cuff DBP from baseline to final visit,[2]; 25 mg BID,−4.4 mmHg
same,adjusted mean change in Cuff SBP from baseline to final visit,[2]; 25 mg BID,−8.1 mmHg
same,adjusted mean change in ABPM DBP from baseline to final visit,[2]; 50 mg BID,−6.6 mmHg
same,adjusted mean change in ABPM SBP from baseline to final visit,[2]; 50 mg BID,−11.6 mmHg
same,adjusted mean change in Cuff DBP from baseline to final visit,[2]; 50 mg BID,−7.8 mmHg
same,adjusted mean change in Cuff SBP from baseline to final visit,[2]; 50 mg BID,−11.7 mmHg
same,adjusted mean change in Cuff DBP from baseline to final visit,[2]; 50 mg QD,−4.5 mmHg
same,adjusted mean change in Cuff DBP from baseline to final visit,[2]; 100 mg QD,−4.4 mmHg
same,adjusted mean change in Cuff SBP from baseline to final visit,[2]; 100 mg QD,−7.9 mmHg
same,"frequency of transient hyperkalemia (i.e., $5.4 mmol/L)",[2]; 200 mg BID and 400 mg QD treatment groups,increased frequency
same,adjusted mean change in ABPM DBP from baseline to final visit,[2]; 200 mg BID,−9.0 mmHg
same,adjusted mean change in ABPM SBP from baseline to final visit,[2]; 200 mg BID,−16.1 mmHg
same,adjusted mean change in Cuff DBP from baseline to final visit,[2]; 200 mg BID,−8.9 mmHg
same,adjusted mean change in Cuff SBP from baseline to final visit,[2]; 200 mg BID,−14.8 mmHg
same,adjusted mean change in Cuff DBP from baseline to final visit,[2]; 400 mg QD,−8.7 mmHg
same,adjusted mean change in Cuff SBP from baseline to final visit,[2]; 400 mg QD,−15.0 mmHg
same,plasma renin activity,"[2]; increasing doses, FIG. 1-1",increased levels
same,serum aldosterone,"[2]; increasing doses, FIG. 1-1",increased levels
same,systolic blood pressure,"[2]; increasing doses, FIG. 1-2",decreased
same,diastolic blood pressure,"[2]; increasing doses, FIG. 1-3",decreased
same,tolerability,"[2]; total daily doses 50, 100 or 400 mg",well tolerated
same,diuretic or hemodynamic effect,[3],neither diuretic nor hemodynamic
same,plasma BNP levels,[3],lowered
same,plasma renin and aldosterone levels,[3],increased
same,effect on the ACE-inhibited mice,"mice; mouse, in vivo",had no effect
same,retention-sparing effects of piracetam,"mice; mouse, in vivo",prevented
"COC(=O)[C@@H]1CC2=CC(=O)CC[C@]2(C)[C@@]23O[C@@H]2C[C@@]2(C)[C@@H](CC[C@@]24CCC(=O)O4)[C@H]13 [Form L, eplerenone]",physical stability relative to Form H,[4],greater physical stability
C[C@]12C[C@H](O)[C@H]3[C@@H](CCC4=CC(=O)CC[C@@]43C)[C@@H]1CC[C@@H]2C(=O)CO [Corticosterone],affinity for central mineralocorticoid receptors,[5],high affinity
same,affinity for glucocorticoid receptors relative to mineralocorticoid receptors,glucocorticoid receptors,tenfold lower affinity
same,adrenalectomy-increased behavioral reactivity towards the object,male Wistar rats; 50 micrograms/kg s.c.,blocked
CC#C[C@]1(O)CC[C@H]2[C@@H]3CCC4=CC(=O)CCC4=C3[C@@H](c3ccc(N(C)C)cc3)C[C@@]21C [RU38486],corticosterone-induced increase in behavioral reactivity,male Wistar rats,not effective
CCOC(=O)[C@H](CCc1ccccc1)N[C@H]1CCCN2CCC[C@@H](C(=O)O)N2C1=O [cilazapril],memory function (passive avoidance),[6],dose-dependently improved
same,capillary densities in the CA1 regions,[6],significant increases
same,hippocampal CA1 cells,[6],significant increases
Cc1ccnc2c1nc(C1CC1)n2Cc1ccc(-c2ccccc2C(=O)O)cc1 [Compound E4177],memory function (passive avoidance),[6],slightly improved
same,capillary densities in the CA1 regions,[6],not influenced
same,hippocampal CA1 cells,[6],restored slightly
